System: Plasmodium berghei
Test: Luciferase/luciferin-expressing antifolate-resistant parasites were used to infect a culture of HepG2 cells that were pre-incubated with compounds. Infected hepatocytes emit light due to the luciferase reaction. Assay results are presented as the percent inhibition of light emission compared to control. […]
Format: functional
Conditions: sporozoite; for IC90: read-out: LUCIFERASE INFECTION ASSAY - IC90
[1] = read-out: LUCIFERASE INFECTION ASSAY - IC50

Compound	IC90 [µM]	IC50 [1] [µM]	further results
COc1ccc(-c2ccnn2-c2nc3ccccc3nc2C(F)(F)F)cc1	8.87	–	IC50 (FFLUC_HILL_SLOPE 12, FFLUC_R_SQUARED 0.622, HEPG2TOX_HILL_SLOPE 8.32, HEPG2TOX_R_SQUARED 0.411, PBLUC_HILL_SLOPE 4.15, PBLUC_R_SQUARED 0.462, read-out: LUCIFERASE INFECTION ASSAY - IC50): 5.22 µM
CSc1sc(C(=O)N/N=C/c2ccc(Cl)cc2)cc1S(=O)(=O)C(C)C	5.75	–	IC50 (HEPG2TOX_HILL_SLOPE 1.17, HEPG2TOX_R_SQUARED 0.979, PBLUC_HILL_SLOPE 3, PBLUC_R_SQUARED 0.696, read-out: LUCIFERASE INFECTION ASSAY - IC50): 2.77 µM
Cn1ccc2cc(-c3cn4c(-c5ccc6ncccc6c5)cnc4cn3)ccc21	3.52	1.36	–
CNC(=O)c1ccc(-c2cc(C(F)(F)F)n(C)n2)s1	> 11.4	> 11.4	–
COc1cc(-c2cc(-c3ccc(S(C)(=O)=O)cc3)cnc2N)ccc1O	1.1	–	IC50 (HEPG2TOX_HILL_SLOPE 0.691, HEPG2TOX_R_SQUARED 0.303, PBLUC_HILL_SLOPE 2.60E+03, PBLUC_R_SQUARED 0.903, read-out: LUCIFERASE INFECTION ASSAY - IC50): 1.1 µM
O=C(NC1CC1)c1ccc(-c2cnc3c(NCc4cccs4)nccn23)cc1	3.14	–	–
O=C(O)COc1ccccc1CS(=O)(=O)c1ccc(Cl)cc1	> 9.68	> 9.68	–
Cc1ccccc1C(C)NC(=O)c1c[nH]c(=S)n1-c1ccccc1 (stereo not drawn)	> 10	> 10	–
COc1ccc(-c2cnc3ccc(NCc4cccc(Cl)c4)nn23)cn1	7.71	–	IC50 (PBLUC_HILL_SLOPE 5.4, PBLUC_R_SQUARED 0.229, read-out: LUCIFERASE INFECTION ASSAY - IC50): 5.13 µM
C/C(=N\NC(=S)NCC(C)(C)C)c1cc(F)cc(Cl)c1O	> 9.94	–	IC50 (PBLUC_HILL_SLOPE 12.9, PBLUC_R_SQUARED 0.356, read-out: LUCIFERASE INFECTION ASSAY - IC50): 9.7 µM
Cc1ccc2nc(CNc3cc(Cl)ccc3N3CCCC3)cc(=O)n2c1	> 10	> 10	–
c1ccc(-c2cc3c(Oc4cccc5ccccc45)ncnc3s2)cc1	> 10	–	IC50 (FFLUC_HILL_SLOPE 2.93, FFLUC_R_SQUARED 0.065, PBLUC_HILL_SLOPE 1.19, PBLUC_R_SQUARED 0.417, read-out: LUCIFERASE INFECTION ASSAY - IC50): 2.85 µM
Clc1ccc(-c2csc3ncnc(Sc4nnc(N5CCOCC5)n4C4CC4)c23)cc1	> 10	–	IC50 (PBLUC_HILL_SLOPE 1.69, PBLUC_R_SQUARED 0.173, read-out: LUCIFERASE INFECTION ASSAY - IC50): 7.1 µM
Cn1/c(=N/NC=C2CCC/C(=C/c3ccccc3)C2=O)sc2ccccc21	> 10	–	IC50 (PBLUC_HILL_SLOPE 4.26, PBLUC_R_SQUARED 0.398, read-out: LUCIFERASE INFECTION ASSAY - IC50): 8.32 µM
COc1ccc(-c2cnc3cnc(-c4cccc(OC)c4F)cn23)cc1	4.49	–	IC50 (HEPG2TOX_HILL_SLOPE 1.94, HEPG2TOX_R_SQUARED 0.943, PBLUC_HILL_SLOPE 2.65, PBLUC_R_SQUARED 0.707, read-out: LUCIFERASE INFECTION ASSAY - IC50): 1.96 µM
O=C(NCCNc1ccnc2cc(Cl)ccc12)c1ccccc1F	8.82	2.31	–
O=C(CN1CCN(Cc2cc(=O)oc3cc4c(cc23)CCC4)CC1)Nc1ccc(Cl)c(C(F)(F)F)c1	> 10	–	IC50 (PBLUC_HILL_SLOPE 2.35, PBLUC_R_SQUARED 0.537, read-out: LUCIFERASE INFECTION ASSAY - IC50): 5.82 µM
COc1ccccc1/C=C(/C(=O)OC(C(=O)c1c[nH]c2ccccc12)c1ccccc1)c1ccccc1 (stereo not drawn)	> 10	–	IC50 (FFLUC_HILL_SLOPE 11.3, FFLUC_R_SQUARED 0.353, PBLUC_HILL_SLOPE 1.04, PBLUC_R_SQUARED 0.705, read-out: LUCIFERASE INFECTION ASSAY - IC50): 3.6 µM
Cc1nc(Nc2ccc(Cl)cc2)sc1C(=O)Nc1ccccc1	> 10	> 10	–
O=C(Nc1ccc(F)cc1)C(Sc1nnc(-c2cccs2)[nH]1)c1ccccc1 (stereo not drawn)	> 10	–	IC50 (PBLUC_HILL_SLOPE 4.17, PBLUC_R_SQUARED 0.509, read-out: LUCIFERASE INFECTION ASSAY - IC50): 6.11 µM
CCN(c1ccccc1)S(=O)(=O)c1ccc(C(=O)NC2CCCCC2)cc1	> 10	–	IC50 (HEPG2TOX_HILL_SLOPE 0.154, HEPG2TOX_R_SQUARED 0.656, read-out: LUCIFERASE INFECTION ASSAY - IC50): > 10 µM

Compound	IC90 [µM]	IC50 [1] [µM]	further results
CCCCCC1C/C(=C\c2ccc(C(F)(F)F)cc2)C(=O)/C(=C/c2ccc(C(F)(F)F)cc2)C1 (stereo not drawn)	> 6.87	–	IC50 (FFLUC_HILL_SLOPE 3.17, FFLUC_R_SQUARED 0.803, HEPG2TOX_HILL_SLOPE 11.8, HEPG2TOX_R_SQUARED 0.221, PBLUC_HILL_SLOPE 15.7, PBLUC_R_SQUARED 0.195, read-out: LUCIFERASE INFECTION ASSAY - IC50): 6.26 µM
CN(C)CCNCCCOc1ccc(C(C)(C)c2ccccc2)cc1	> 10	–	IC50 (FFLUC_HILL_SLOPE 2.11, FFLUC_R_SQUARED 0.273, PBLUC_HILL_SLOPE 1.18, PBLUC_R_SQUARED 0.227, read-out: LUCIFERASE INFECTION ASSAY - IC50): 5.92 µM
O=C(COCc1ccccc1)Nc1nc2ccccn2c1C(=O)NC1CCCCC1	> 8.12	> 8.12	–
COc1ccccc1NC(=O)NCc1nc(-c2ccccc2)c[nH]1	5.1	–	IC50 (HEPG2TOX_HILL_SLOPE 5.47, HEPG2TOX_R_SQUARED 0.951, PBLUC_HILL_SLOPE 7.77, PBLUC_R_SQUARED 0.194, read-out: LUCIFERASE INFECTION ASSAY - IC50): 3.84 µM
CCCCc1ccc2nc(NC(=O)c3cnc(C)cn3)sc2c1	> 10	–	IC50 (HEPG2TOX_HILL_SLOPE 2.45, HEPG2TOX_R_SQUARED 0.834, PBLUC_HILL_SLOPE 1.44, PBLUC_R_SQUARED 0.354, read-out: LUCIFERASE INFECTION ASSAY - IC50): > 10 µM
Cc1nn2c(=O)cc(C(C)C)[nH]c2c1-c1ccc(F)cc1	> 11.6	> 11.6	–
O=C(Nc1ccc(Cl)c(Cl)c1)Nc1ccc2c(c1)OCCO2	> 9.73	> 9.73	–
CC1CC(C)CN(C(=O)c2ccccc2C(=O)OCC(=O)NCc2cccs2)C1 (stereo not drawn)	> 10	> 10	–
O=C(NCC1CCCO1)c1cc2c([nH]c3ccccc32)c(-c2ccc(F)cc2)n1 (stereo not drawn)	8.34	–	IC50 (HEPG2TOX_HILL_SLOPE 1.25, HEPG2TOX_R_SQUARED 0.9, PBLUC_HILL_SLOPE 2.06, PBLUC_R_SQUARED 0.74, read-out: LUCIFERASE INFECTION ASSAY - IC50): 2.86 µM
C/C(=N\NC(=S)Nc1ccc(Cl)cc1)c1ccn[nH]1	4.51	–	IC50 (HEPG2TOX_HILL_SLOPE 2.63, HEPG2TOX_R_SQUARED 0.844, PBLUC_HILL_SLOPE 3.05, PBLUC_R_SQUARED 0.682, read-out: LUCIFERASE INFECTION ASSAY - IC50): 2.19 µM
CC(C)C(Nc1ccc(C(F)(F)F)cc1Cl)C(=O)Nc1nc(-c2ccc(F)cc2)cs1 (stereo not drawn)	5.28	–	IC50 (HEPG2TOX_HILL_SLOPE 19.1, HEPG2TOX_R_SQUARED 0.637, PBLUC_HILL_SLOPE 12.2, PBLUC_R_SQUARED 0.325, read-out: LUCIFERASE INFECTION ASSAY - IC50): 4.41 µM
CCOC(=O)c1c(-c2ccc(OC)cc2)csc1NC(=O)CSc1nc(C)nc2sc3c(c12)CCC3	> 10	–	IC50 (FFLUC_HILL_SLOPE 0.459, FFLUC_R_SQUARED 0.138, read-out: LUCIFERASE INFECTION ASSAY - IC50): > 10 µM
CC1CCC/C(=C(/C#N)c2nc(-c3ccccc3O)cs2)C1 (stereo not drawn)	5.31	–	IC50 (HEPG2TOX_HILL_SLOPE 34.1, 11.7, HEPG2TOX_R_SQUARED 0.352, 0.945, PBLUC_HILL_SLOPE 13.4, PBLUC_R_SQUARED 0.235, read-out: LUCIFERASE INFECTION ASSAY - IC50): 4.51 µM
Cc1ccccc1-c1cnc2cnc(-c3ccc(N4CCN(C)CC4)nc3)cn12	> 8.58	–	IC50 (PBLUC_HILL_SLOPE 2.3, PBLUC_R_SQUARED 0.345, read-out: LUCIFERASE INFECTION ASSAY - IC50): > 8.58 µM
CCN(CC)c1ccc(NC(=O)c2[nH]nc3ccccc23)cc1S(=O)(=O)Nc1ccc(OC)cc1	> 10	–	IC50 (PBLUC_HILL_SLOPE 10.5, PBLUC_R_SQUARED 0.206, read-out: LUCIFERASE INFECTION ASSAY - IC50): 9.2 µM
Cc1ccc(C)c(N2C(=O)C=CC2=O)c1	> 16.4	–	IC50 (PBLUC_HILL_SLOPE 15.1, PBLUC_R_SQUARED 0.421, read-out: LUCIFERASE INFECTION ASSAY - IC50): 14.8 µM
CC(C)(C)c1ccc(-c2nnc(SCC(=O)Nc3sccc3C(N)=O)n2C2CCCC2)cc1	> 10	–	IC50 (HEPG2TOX_HILL_SLOPE 7.51, 0.572, HEPG2TOX_R_SQUARED 0.693, 0.490, PBLUC_HILL_SLOPE 1.93, PBLUC_R_SQUARED 0.568, read-out: LUCIFERASE INFECTION ASSAY - IC50): 4.92 µM
Clc1cnc(N/N=C/c2sc(N3CCCCC3)nc2-c2cccs2)c(Cl)c1	9.96	–	IC50 (HEPG2TOX_HILL_SLOPE 1.78, HEPG2TOX_R_SQUARED 0.499, PBLUC_HILL_SLOPE 5.62, PBLUC_R_SQUARED 0.563, read-out: LUCIFERASE INFECTION ASSAY - IC50): 6.74 µM
Cc1ccc(NC(=O)N2[C@@H]3CC[C@@H](C3)[C@H]2c2nc3cccc(OCc4ccccc4)c3[nH]2)cc1	> 10	> 10	–
Nc1ccc(-c2cnn3c(N4CCOCC4)ccnc23)cc1	8.75	–	IC50 (FFLUC_HILL_SLOPE 1.28, FFLUC_R_SQUARED 0.893, PBLUC_HILL_SLOPE 0.747, PBLUC_R_SQUARED 0.679, read-out: LUCIFERASE INFECTION ASSAY - IC50): 0.462 µM
Cn1cc(Br)cc1C(=O)Nc1ccc2c(c1)OCCO2	> 10	> 10	–

— ChEMBL document CHEMBL4483862, “Open-source discovery of chemical leads for next-generation chemoprotective antimalarials” (2018)
